Test results from patent publication US10670600B2, “Saposin-A derived peptides and uses thereof” (CHILDREN'S MEDICAL CENTER CORPORATION, priority 2007, dated 2020).
Bridge positions count the residues as written; N and C are the ends. Ends that are not written are not given here.

Assays:
Psap in PC3-MycER cells = experiment: Psap levels in PC3-MycER cells, western blot; assay type: cell-based, human; conditions: induction of Myc function
Procedure: For Western blotting, cells were harvested by mechanical scraping into 4° C. PBS, cell pellets were obtained by removing PBS after centrifugation at 13,000 rpm in a Heraeus Biofuge Fresco (Thermo Electron, Asheville, N.C.) for 2 min. Cells were then lysed in 50 mM Tris-HCl (pH 7.4), 150 mM NaCl, 1% NP40, 1 mM sodium orthovanadate, 5 mM NaF, 20 mM β-glycerophosphate, and complete protease inhibitor (Roche, Indianapolis, Ind.) and protein concentrations were determined by the BioRad protein assay (BioRad, Hercules, Calif.). Fifty micrograms of protein were loaded per well onto a 4-12% pre-cast Bis-Tris gel (BioRad, Hercules, Calif.). The protein extracts were electrophoresed and transferred to an immobilon-P membrane (Millipore, Bedford, Mass.). The membranes were blocked in 5% nonfat milk and incubated in primary antibody to Tsp-1 (Ab-11, LabVision, Fremont, Calif.), c-Myc and phospho-Myc (Cell Signaling Technology, Beverly, Mass.), Prosaposin (Santa Cruz Biotechnology, Santa Cruz, Calif.), β-actin (AbCam, Cambridge, UK). The membranes were then washed in PBS+0.1% Tween-20 and incubated with either HRP-conjugated goat anti-mouse or anti-rabbit secondary antibody (Jackson Immunoresearch Laboratories, West Grove, Pa.) followed by another wash. […] Protein volume intensity was determined using a Bio-Rad Chemi-Doc XRS system (Bio-Rad, CA). […]

[1] = system: Tsp-1 expression in WI-38 lung fibroblasts; experiment: Tsp-1 expression in WI-38 lung fibroblasts, western blot; assay type: cell-based, human
Procedure: (§1) For the conditioned media assay, 1.5×10^6 tumor cells and fibroblasts cells were grown in the tumor cell media containing 0.1% FBS for 12 hours at which point the conditioned media from the tumor cells was centrifuged to remove any cells or cell debris and transferred to the fibroblasts subsequent to removal of the low serum fibroblast growth media. All assays were performed a minimum of five times and representative samples depicted. The fibroblasts and media were harvested after 12 to 16 hours after addition of the tumor cell conditioned media and lysed for the western blot analysis while the conditioned media was collected for ELISA analysis. For the co-culture assays, 1×10^6 fibroblasts were seeded in the bottom chamber of transwell tissue culture plates (Corning Inc., Corning, N.Y.) and 1×10^6 tumor cells were seeded on the membrane in the top chamber of the plates. The two cell types were co-cultured for 40 to 44 hours in tumor cell media containing 0.1% FBS before harvesting and lysing the fibroblasts for western blot analysis and collecting the media for ELISA analysis.
For Western blotting, cells were harvested by mechanical scraping into 4° C. PBS, cell pellets were obtained by removing PBS after centrifugation at 13,000 rpm in a Heraeus Biofuge Fresco (Thermo Electron, Asheville, N.C.) for 2 min. Cells were then lysed in 50 mM Tris-HCl (pH 7.4), 150 mM NaCl, 1% NP40, 1 mM sodium orthovanadate, 5 mM NaF, 20 mM β-glycerophosphate, and complete protease inhibitor (Roche, Indianapolis, Ind.) and protein concentrations were determined by the BioRad protein assay (BioRad, Hercules, Calif.). Fifty micrograms of protein were loaded per well onto a 4-12% pre-cast Bis-Tris gel (BioRad, Hercules, Calif.). The protein extracts were electrophoresed and transferred to an immobilon-P membrane (Millipore, Bedford, Mass.). The membranes were blocked in 5% nonfat milk and incubated in primary antibody to Tsp-1 (Ab-11, LabVision, Fremont, Calif.), c-Myc and phospho-Myc (Cell Signaling Technology, Beverly, Mass.), Prosaposin (Santa Cruz Biotechnology, Santa Cruz, Calif.), β-actin (AbCam, Cambridge, UK). The membranes were then washed in PBS+0.1% Tween-20 and incubated with either HRP-conjugated goat anti-mouse or anti-rabbit secondary antibody (Jackson Immunoresearch Laboratories, West Grove, Pa.) followed by another wash. The membrane was then developed with ECL reagent (Pierce, Rockford, Ill.) and exposed on film. Protein volume intensity was determined using a Bio-Rad Chemi-Doc XRS system (Bio-Rad, CA). […]
Seven 20-amino acid (20-mer) peptides derived from saposin A were tested for ability to stimulate Tsp-1 expression in fibroblasts. […] WI-38 lung fibroblasts were treated with these peptides overnight and the Tsp-1 expression was analyzed by Western blot analysis. […]

p53 in WI-38 fibroblasts = experiment: p53 expression in WI-38 fibroblasts, western blot; assay type: cell-based, human
[2] = system: MDM2 in WI-38 fibroblasts; experiment: MDM2 protein levels in WI-38 fibroblasts, western blot; assay type: cell-based, human
[3] = system: p53 expression in prostate fibroblasts; experiment: p53 expression in prostate fibroblasts, western blot; assay type: cell-based, human
Procedure: Methods of assaying the effects of mutant, fragment or variant Psap on Tsp-1 and p53 expression are described herein. Briefly, full-length, mutant, fragment and variant Psap are applied to the cell cultures prostate fibroblast. The conditioned media from PC3M-LN4 (LN4) and PC3 cells are used as controls, with PC3 as positive/stimulating control and LN4 as negative/inhibiting controls. After a period of included (˜16 h), the cells are harvested, rinsed, and lysed. The lysates are analyzed for the level of Tsp-1 and p53 expression by western blot analyses, with β-actin as the internal lysate protein loading control. […]
For Western blotting, cells were harvested by mechanical scraping into 4° C. […] Cells were then lysed in 50 mM Tris-HCl (pH 7.4), 150 mM NaCl, 1% NP40, 1 mM sodium orthovanadate, 5 mM NaF, 20 mM β-glycerophosphate, and complete protease inhibitor (Roche, Indianapolis, Ind.) and protein concentrations were determined by the BioRad protein assay (BioRad, Hercules, Calif.). […] Protein volume intensity was determined using a Bio-Rad Chemi-Doc XRS system (Bio-Rad, CA).
Having determined that p53 protein levels were elevated in the stroma of PC3 tumors, the inventors determined if p53 stimulation could be responsible for the increased expression of Tsp-1. […]

[4] = system: Tsp-1 expression in prostate fibroblasts; experiment: Tsp-1 expression in prostate fibroblasts, western blot; assay type: cell-based, human; conditions: for stimulation of Tsp-1 by PC3 conditioned media in the presence of inhibitor: prostate fibroblasts treated with PC3 CM plus inhibitor
Procedure: Methods of assaying the effects of mutant, fragment or variant Psap on Tsp-1 and p53 expression are described herein. Briefly, full-length, mutant, fragment and variant Psap are applied to the cell cultures prostate fibroblast. The conditioned media from PC3M-LN4 (LN4) and PC3 cells are used as controls, with PC3 as positive/stimulating control and LN4 as negative/inhibiting controls. After a period of included (˜16 h), the cells are harvested, rinsed, and lysed. The lysates are analyzed for the level of Tsp-1 and p53 expression by western blot analyses, with β-actin as the internal lysate protein loading control.
as §1
For Western blotting, cells were harvested by mechanical scraping into 4° C. PBS, cell pellets were obtained by removing PBS after centrifugation at 13,000 rpm in a Heraeus Biofuge Fresco (Thermo Electron, Asheville, N.C.) for 2 min. Cells were then lysed in 50 mM Tris-HCl (pH 7.4), 150 mM NaCl, 1% NP40, 1 mM sodium orthovanadate, 5 mM NaF, 20 mM β-glycerophosphate, and complete protease inhibitor (Roche, Indianapolis, Ind.) and protein concentrations were determined by the BioRad protein assay (BioRad, Hercules, Calif.). Fifty micrograms of protein were loaded per well onto a 4-12% pre-cast Bis-Tris gel (BioRad, Hercules, Calif.). The protein extracts were electrophoresed and transferred to an immobilon-P membrane (Millipore, Bedford, Mass.). […] Protein volume intensity was determined using a Bio-Rad Chemi-Doc XRS system (Bio-Rad, CA).

thrombospondin-1 (Tsp-1) = experiment: Tsp-1 expression in lungs and livers of treated mice, western blot; assay type: in vivo
Procedure: The 20-mer […] (SEQ. ID. No. 29) was tested in vivo in mice for their ability to induce Tsp-1 expression. Four mice were treated with the 20-amino acid peptide (residues 31-50 of saposin A) at a dose of 30 mg/kg/day in combination with 200 μL of conditioned media (CM) from the metastatic prostate cancer cell line PC3M-LN4. […] Another four mice were treated with CM from PC3M-LN4 alone, and a control group of four mice with treated with vehicle (PBS) alone. […] Mice were treated for 9 days after which they were sacrificed and the lungs and livers were harvested and lysed. Tissue lysates were then run on a 4-12% gradient bis-tris polyacrylamide gel and transferred to a nitrocellulose membrane for western blotting with antibodies specific for thrombospondin-1 (Tsp-1) and β-actin.

semaphorin 3F = semaphorin 3F mRNA in WI-38 fibroblasts, real time RT-PCR; assay type: cell-based, human; conditions: conditioned media of cells with or without prosaposin, relative to GAPDH
Procedure: FIG. 25. mRNA levels of semaphorin 3F, relative to GAPDH, in WI-38 fibroblasts that were untreated (NoTxPrSc) treated with conditioned media from PC3, PC3-shprosaposin (PC3-sh), PC3M-LN4 (LN4) and PC3M-LN4 cells ectopically expressing prosaposin (LN4Psap) as determined by real time RT-PCR.
Finally, it was determined that prosaposin stimulates the expression of semaphorin 3F, a transcriptional target of p53 and an inhibitor of metastasis and lymphangiogenesis, at the mRNA level (FIG. 25).

[5] = WI-38 fibroblasts, in the presence of the cyclic 13-mer
[6] = WI-38 lung fibroblasts treated with peptide
[7] = WI-38 fibroblasts treated with peptide
[8] = mice treated for 9 days, versus control
[9] = mice, 30 mg/kg/day with 200 μL PC3M-LN4 CM, 9 days, compared to PC3M-LN4 CM

For 4-hydroxy-tamoxifen [4-HT], the “reduction in Psap levels” value (Psap in PC3-MycER cells) was 4 fold.

NC(=O)c1ccc(-c2nc(-c3ccc4c(c3)OCCO4)c(-c3ccccn3)[nH]2)cc1 [D4476, reference compound] was tested, and the “Tsp-1 protein level (in words)” value [1, 5] was “reduction”, the “p53 protein level (in words)” value (p53 in WI-38 fibroblasts; [5]) was “reduction” and the “MDM2 protein level (in words)” value [2, 5] was “increase”.

With COc1ccc2c(c1)c(C1=C(c3c[nH]c4ccccc34)C(=O)NC1=O)cn2CCCN(C)C [GO 6983, reference compound] the “stimulation of p53 by PC3 conditioned media in the presence of inhibitor” value ([3]; prostate fibroblasts treated with PC3 CM plus inhibitor) was “abolished” and the “stimulation of Tsp-1 by PC3 conditioned media in the presence of inhibitor” value [4] was “abolished”.

For “CDWLPKPNMSASC (disulfide 1-13) [SEQ. ID. No. 37, cyclic 13 amino acid peptide, residues 35-47 of saposin A]”, the “Tsp-1 expression (in words)” value [1, 6] was “sufficient to stimulate”, the “p53 expression (in words)” value (p53 in WI-38 fibroblasts; [7]) was “sufficient to stimulate” and the “MDM2 protein level (in words)” value [2, 7] was “down regulation”.

“LEKTCDWLPKPNMSASCKEI [SEQ. ID. No. 29, 20-mer, residues 31-50 of saposin A]” was tested, and the “level of Tsp-1 stimulation relative to PC3 conditioned media” value (thrombospondin-1 (Tsp-1); mice treated for 9 days, lung and liver) was “greater”, the “Tsp-1 expression in the liver (in words)” value (thrombospondin-1 (Tsp-1); [8]) was “stimulated” and the “Tsp-1 expression in the lung (in words)” value (thrombospondin-1 (Tsp-1); [8]) was “stimulated”. The “stimulation of Tsp-1 expression in the liver” value (thrombospondin-1 (Tsp-1); [9]) was 4 fold, the “stimulation of Tsp-1 expression in the lung” value (thrombospondin-1 (Tsp-1); [9]) was 6 fold and the “Tsp-1 expression (in words)” value [1, 6] was “able to stimulate”.

B1: RAP: Receptor Associate Protein, a competitive inhibitor of LRP binding (protein)
chain: YSREKNQPKPSPKRESGEEFRMEKLNQLWEKAQRLHLPPVRLAELHADLKIQERDELAWKKLKLDGLDEDGEKEARLIRNLNVILAKYGLDGKKDARQVTSNSLSGTQEDGLDDPRLEKLWHKAKTSGKFSGEELDKLWREFLHHKEKVHEYNVLLETLSRTEEIHENVISPSDLSDIKGSVLHSRHTELKEKLRSINQGLDRLRRVSHQGYSTEAEFEEPRVIDLWDLAQSANLTDKELEAFREELKHFEAKIEKHNHYQKQLEIAHEKLRHAESVGDGERVSRSREKHALLEGRTKELGYTVKKHLQDLSGRISRARHNEL
For B1, the “stimulation of Tsp-1 by PC3 conditioned media in the presence of inhibitor” value [4] was “no longer stimulated”.

B2: SLPCDICKDVVTAAGDMLKDNATEEEILVYLEKTCDWLPKPNMSASCKEIVDSYLPVILDIIKGEMSRPGEVCSALNLCES (protein, listed as Homo sapiens)
chain: SLPCDICKDVVTAAGDMLKDNATEEEILVYLEKTCDWLPKPNMSASCKEIVDSYLPVILDIIKGEMSRPGEVCSALNLCES
notes: cleavage product of Psap, expressed as truncation mutant
For B2, the “Tsp-1 expression (in words)” value ([1]; lung fibroblasts, CM from PC3M-LN4 cells transduced with truncated mutants of prosaposin) was “sufficient to stimulate” and the “stimulation of Tsp-1 (in words)” value ([4]; prostate fibroblasts, conditioned media of PC3M-LN4 cells transfected with truncation mutants) was “minimal domain that is functionally required for the stimulation of Tsp-1”.

B3: prosaposin: saposin precursor protein, purified from PC3M-LN4 conditioned media with Talon metal affinity resin (protein, listed as Homo sapiens)
chain: MYALFLLASLLGAALAGPVLGLKCTRGSAVWCQNVKTASDCGAVKHCLQTVWNKPTVKSLPCDICKDVVTAAGDMLKDNATILVYLKTCDWLPKPNMSASCKIVDSYLPVILDIIKGMSRPGVCSALNLCSLQKHLALNHQKQLSNKIPLDMTVVAPFMANIPLLLYPQDGPRSKPQPKDNGDVCQDCIQMVTDIQTAVRTNSTFVQALVHVKCDRLGPGMADICKNYISQYSIAIQMMMHMQPKICALVGFCDVKMPMQTLVPAKVASKNVIPALLVPIKKHVPAKSDVYCVCFLVKVTKLIDNNKTKILDAFDKMCSKLPKSLSCQVVDTYGSSILSILLVSPLVCSMLHLCSGTRLPALTVHVTQPKDGGFCVCKKLVGYLDRNLKNSTKQILAALKGCSFLPDPYQKQCDQFVAYPVLIILVVMDPSFVCLKIGACPSAHKPLLGTKCIWGPSYWCQNTTAAQCNAVHCKRHVWN
B3 was tested, and the “p53 expression (in words)” value ([3]; prostate fibroblasts, western blot) was “stimulated”, the “expression of semaphorin 3F at the mRNA level” value (semaphorin 3F) was “stimulates” and the “stimulation of Tsp-1 expression” value ([4]; prostate fibroblasts, western blot, band volume density, purified Psap 5 μg) was ~5 fold.
